From patent publication US11279737B2, “Antimicrobial peptide variants and uses thereof” (ANTINBIO, INC., priority 2019, dated 2022)
In brackets after ≈: the same amount, converted by molar mass. Where a SMILES comes first, the peptide text is derived from it. Bridges are numbered along the chain shown (N, C = ends).

Key:
S. aureus ATCC 6538 [1] = test: inhibition zone assay; details: 10 μg peptide per hole, 37° C., 16-18 hours
[2] = system: S. aureus MRSA ATCC 43300
[3] = system: C. perfringens ATCC 13124
S. aureus ATCC 6538 [4] = system: S. aureus ATCC 6538
human erythrocytes = test: hemolytic assay; format: cell-based; details: peptide 0.5-500 μg/ml, 37° C., 60 minutes, FIG. 2
Protocol: For the hemolysis assays, human erythrocytes were obtained from healthy donors, washed 3 times using sterilized PBS and re-suspended to a concentration of 2% (v/v) with PBS. The hegrisin, HCN2016-01 peptide, and plectasin (control) were diluted to concentrations of 500, 250, 125, 62.5, 32, 16, 8, 4, 2, 1, and 0.5 μg/ml. A 100 μL solution of each peptide and a 100 μL suspension of red blood cells were mixed and added to the wells of a 96-well plate. PBS was used as negative control and Triton X-100 was used as a positive control.
The samples were incubated at 37° C. for 60 minutes and gently stirred during the incubation period. Then, the samples were centrifuged at 2000 rpm for 5 minutes. A total of 100 μL of the supernatant in each well was transferred to a new 96-well plate and absorbance was measured at 490 nm using a microplate reader (Molecular Devices, USA).
For hemolysis assays, human erythrocytes were obtained from healthy donors, washed 3 times using sterilized PBS, and re-suspended to a concentration of 2% (v/v) with PBS. The HCN2016-01 peptide (SEQ ID NO: 2) and plectasin (control) were diluted to concentrations of 500; 250; 125; 62.5; 32; 16; 8; 4; 2; 1; and 0.5 μg/ml. A 100 μL of each peptide solution was mixed with a 100 μL solution of a red blood cell suspension and added to separate wells of a 96-well plate. PBS was used as negative control and Triton X-100 was used as a positive control. The samples were incubated at 37° C. for 60 minutes and gently stirred during the incubation period. The samples were then centrifuged at 2000 rpm for 5 minutes. A total of 100 μL of the supernatant in each well was transferred to a new 96-well plate and absorbance was measured at 490 nm using a microplate reader (Molecular Devices, USA).

[5] = system: S. epidermidis ATCC 14990

CC[C@H](C)[C@@H]1NC(=O)CNC(=O)CNC(=O)[C@H](Cc2ccccc2)NC(=O)[C@H](CCCCN)NC(=O)[C@@H]2CSSC[C@H](NC(=O)[C@H](CO)NC(=O)[C@H](Cc3c[nH]c4ccccc34)NC(=O)CN)C(=O)N[C@@H](CC(N)=O)C(=O)N[C@@H]([C@@H](C)CC)C(=O)N[C@@H](Cc3c[nH]c4ccccc34)C(=O)N[C@@H](CC(N)=O)C(=O)NCC(=O)N[C@@H](CC(N)=O)C(=O)N[C@@H](CC(=O)O)C(=O)N[C@@H](CCC(=O)O)C(=O)N3CCC[C@H]3C(=O)N[C@H]3CSSC[C@H](NC1=O)C(=O)N[C@@H](CCCCN)C(=O)N[C@H](C(=O)N[C@@H](Cc1ccc(O)cc1)C(=O)O)CSSC[C@H](NC(=O)[C@H](Cc1c[nH]cn1)NC(=O)[C@H](CCC(N)=O)NC(=O)[C@H](Cc1c[nH]cn1)NC3=O)C(=O)N[C@@H](CCCCN)C(=O)N[C@@H](CO)C(=O)N[C@@H]([C@@H](C)CC)C(=O)N[C@@H](CCCNC(=N)N)C(=O)NCC(=O)N[C@@H](Cc1ccc(O)cc1)C(=O)N[C@@H](CCCNC(=N)N)C(=O)NCC(=O)NCC(=O)N[C@@H](Cc1ccc(O)cc1)C(=O)N2 [HCN2016-01] (H-GWSCNIWNGNDEPCHQHCKSIRGYRGGYCKFGGICKCY-OH; disulfide 4-29, 14-35, 18-37 (inferred); N-terminus and C-terminus assumed)
Minimal inhibitory concentration (MIC) (B. longum ATCC 15707; ATCC 15707): 8.0 µg/mL (≈ 1.85 µM)
activity against bacteria (in words) (B. longum ATCC 15707; B. longum ATCC 15707): strong activity
Activity (antimicrobial activity relative to unmodified hegrisin, zones of growth inhibition) (S. aureus ATCC 6538 [1]): 2
Minimal inhibitory concentration (MIC) (S. salivarius ATCC 19258; ATCC 19258): 4.0 µg/mL (≈ 0.923 µM)
activity against bacteria (in words) (S. salivarius ATCC 19258; S. salivarius ATCC 19258): strong activity
Minimal inhibitory concentration (MIC) (B. subtilis ATCC 6633; ATCC 6633): 0.50 µg/mL (≈ 0.115 µM)
activity against bacteria (in words) (B. subtilis ATCC 6633; B. subtilis ATCC 6633): strong activity
Minimal inhibitory concentration (MIC) (L. casei ATCC 393): >500.0 µg/mL
Minimal inhibitory concentration (MIC) ([2]; ATCC 43300): 0.73 µg/mL (≈ 0.168 µM)
activity against bacteria (in words) ([2]; S. aureus MRSA ATCC 43300): strong activity
antimicrobial activity compared to wild type hegrisin (in words) ([2]; S. aureus MRSA ATCC 43300): improved antimicrobial activity
Minimal inhibitory concentration (MIC) (L. delbrueckii ATCC 9649; ATCC 9649): 8.0 µg/mL (≈ 1.85 µM)
activity against bacteria (in words) (L. delbrueckii ATCC 9649; L. delbrueckii ATCC 9649): strong activity
Minimal inhibitory concentration (MIC) (L. lactis ATCC 19256): 0.50 µg/mL (≈ 0.115 µM)
activity against bacteria (in words) [3]: strong activity
Minimal inhibitory concentration (MIC) ([3]; ATCC 13124): 6.81 µg/mL (≈ 1.57 µM)
Minimal inhibitory concentration (MIC) (C. acnes ATCC 11827; ATCC 11827): 8.0 µg/mL (≈ 1.85 µM)
activity against bacteria (in words) (C. acnes ATCC 11827; C. acnes ATCC 11827): strong activity
Minimal inhibitory concentration (MIC) (L. plantarum ATCC 14917): 16.0 µg/mL (≈ 3.69 µM)
Minimal inhibitory concentration (MIC) (L. rhamnosus ATCC 14957): 32.0 µg/mL (≈ 7.38 µM)
Minimal inhibitory concentration (MIC) (S. aureus ATCC 6538 [4]; ATCC 6538): 0.30 µg/mL (≈ 0.0692 µM)
activity against bacteria (in words) (S. aureus ATCC 6538 [4]; S. aureus ATCC 6538): strong activity
antimicrobial activity compared to wild type hegrisin (in words) (S. aureus ATCC 6538 [4]; S. aureus ATCC 6538, lower MIC values): improved antimicrobial activity
cell lysis (hemolysis) of human erythrocytes (human erythrocytes): no significant lysis
Minimal inhibitory concentration (MIC) (E. coli ATCC 25922; ATCC 25922): >500.0 µg/mL
activity against bacteria (in words) (E. coli ATCC 25922; Gram negative bacteria E. coli): minimal or no activity
Minimal inhibitory concentration (MIC) ([5]; ATCC 14990): 0.31 µg/mL (≈ 0.0715 µM)
activity against bacteria (in words) ([5]; S. epidermidis ATCC 14990): strong activity
antimicrobial activity compared to wild type hegrisin (in words) ([5]; S. epidermidis ATCC 14990): improved antimicrobial activity
